How the values were obtained:
Format in all cases: cell-based
[1] = test system: calcium mobilization in response to LTB4; assay: LTB4-induced calcium mobilization in human neutrophils; details: compound 1 μM, LTB4 10 nM, FIG. 2
Method: Human granulocytes 95% neutrophils) are prepared from whole blood using Dextran 500 to remove red blood cells, followed by centrifugation over Ficoll-Paque to remove mononuclear cells and hypotonic lysis of any remaining red blood cells. After centrifugation the granulocytes are suspended in Ca^++/Mg^++-free phosphate-buffered saline (PBS). Granulocytes (10^7 cells/nil) are incubated with the acetoxymethyl ester of indo-1 ([…]) for 30 min, followed by washing twice with PBS^− and resuspension in the same medium to obtain a final cell concentration of 3.22×10^6 cells/ml. Five minutes prior to commencing data acquisition, Ca^++ and Mg^++ are added to give final concentrations of 1.8 and 1 mM, respectively. Calcium measurements are performed at 37° C. using a spectrofluorometer equipped with a temperature-controlled cuvette holder and a magnetic stirrer. The excitation and emission wavelengths are 331 nm and 410 nm, respectively. Following stabilization of the baseline, fluorescence is measured for 1 min, prior to the addition of either vehicle or various concentrations of a potential 5-oxo-ETE antagonist. […] Fmax is determined from fluorescence measurements after the addition of digitonin, whereas Fmin is determined after determination of autofluorescence as described in the literature (Gelfand et al, J. Biol. Chem. 261:11520 (1986)). […]

[2] = target: T1, OXE receptor (Homo sapiens, UniProt Q8TDS5); assay: 5-oxo-ETE-induced calcium mobilization in human granulocytes; parameters: Human granulocytes 95% neutrophils) are prepared from whole blood; endogenous in cells; host or cells: human blood granulocytes (>=95% neutrophils)
Method: Primary Screening for Antagonist Activity: Calcium Mobilization in Human Granulocytes
Human granulocytes 95% neutrophils) are prepared from whole blood using Dextran 500 to remove red blood cells, followed by centrifugation over Ficoll-Paque to remove mononuclear cells and hypotonic lysis of any remaining red blood cells. After centrifugation the granulocytes are suspended in Ca^++/Mg^++-free phosphate-buffered saline (PBS). Granulocytes (10^7 cells/nil) are incubated with the acetoxymethyl ester of indo-1 ([…]) for 30 min, followed by washing twice with PBS^− and resuspension in the same medium to obtain a final cell concentration of 3.22×10^6 cells/ml. Five minutes prior to commencing data acquisition, Ca^++ and Mg^++ are added to give final concentrations of 1.8 and 1 mM, respectively. Calcium measurements are performed at 37° C. using a spectrofluorometer equipped with a temperature-controlled cuvette holder and a magnetic stirrer. The excitation and emission wavelengths are 331 nm and 410 nm, respectively. Following stabilization of the baseline, fluorescence is measured for 1 min, prior to the addition of either vehicle or various concentrations of a potential 5-oxo-ETE antagonist. Two min later, 5-oxo-ETE (10 nM) is added, followed 1 min later by digitonin (final concentration 0.1%). Data acquisition is terminated after a further 0.5 min. In some cases LTB4 (10 nM) is added 2 min after 5-oxo-ETE, followed 0.5 min later by addition of digitonin. Fmax is determined from fluorescence measurements after the addition of digitonin, whereas Fmin is determined after determination of autofluorescence as described in the literature (Gelfand et al, J. Biol. Chem. 261:11520 (1986)). A dissociation constant of 250 nM for the indo-1/Ca^++ complex is used to calculate [Ca^++]i. […] Measurement of Actin Polymerization in Eosinophils

[3] = target: T1, OXE receptor; assay: 5-oxo-ETE-induced actin polymerization (F-actin levels) in eosinophils; parameters: endogenous in cells; details: 5-oxo-ETE 10 nM, Table 2
Method: F-actin levels in eosinophils are measured using unfractionated leukocytes, prepared as described above. Leukocytes (5×10^7 cells/ml) are treated with PC5-labeled mouse anti-human CD16 (10 μl/10^6 cells; Beckman-Coulter) for 30 min on ice. PBS (2 ml/10^6 cells) is then added and the mixture centrifuged at 200×g for 10 min. The pellet is resuspended in ice cold PBS containing Ca^++ (1.8 mM) and Mg^++ (1 mM) to give a concentration of 5×10^6 cells/ml. Aliquots (90 μl) of the leukocyte suspension are first incubated at 37° C. with either vehicle (10 μl PBS containing Ca^++ and Mg^++ and 0.1% BSA) or vehicle containing a 5-oxo-ETE antagonist. After 5 min, either vehicle or vehicle containing 5-oxo-ETE (final concentration, 10 nM) is added and the incubation continued for a further 20 s. The incubations are then terminated by addition of formaldehyde (37%) to give a final concentration of 8.5%. […] F-actin levels are measured by flow cytometry in eosinophils, which are gated based on high side scatter and low staining with anti-CD16. F-actin levels in the eosinophil population are assessed on the basis of fluorescence due to staining with NBD-phallacidin.

[4] = target: T1, OXE receptor; assay: Neutrophil migration (chemotaxis) induced by 5-oxo-ETE, microchemotaxis chambers; parameters: Human granulocytes 95% neutrophils) are prepared from whole blood; endogenous in cells; host or cells: human blood granulocytes (>=95% neutrophils); details: 5-oxo-ETE 100 nM; human granulocytes; Table 2
Method: Cell migration is measured by the modified Boyden technique using 48-well microchemotaxis chambers and Sartorius cellulose nitrate filters (8 μm pore size; 140 μm thickness) as described previously (Powell et al., J Immunol 156: 336 (1996)). Granulocytes (≧95% neutrophils) are prepared as described above. Immediately prior to use the filters are soaked in PBS containing calcium (1 mM), magnesium (1 mM), and 0.3% BSA. Either vehicle (PBS containing Ca^++, Mg^++, and 0.3% BSA) or vehicle containing 5-oxo-ETE (100 nM final concentration) is added to the bottom well in a volume of 30 μl, whereas neutrophils (150,000 cells in 55 μl PBS containing Ca^++, Mg^++ and 0.4% ovalbumin) and either vehicle or various concentrations of a 5-oxo-ETE antagonist are added to each of the top wells. The chambers are incubated for 2 h at 37° C. in 5% CO2 and humidified air. […] The filters are mounted on slides with coverslips using Permount and the numbers of cells on the bottom surfaces of the filters are counted in 5 different fields at a magnification of 400× for each incubation, each of which is performed in triplicate. In cases in which there are large numbers of cells on the bottom surfaces of the filters only quarter or half fields are counted and the results corrected accordingly.

[5] = 5-oxo-ETE 10 nM, human granulocytes, Table 2, read-out: IC50 (μM) Ca^++
[6] = Table 6, carboxyl side chain variation, readout not given, values match Ca^++, read-out: IC50

T1 sequence (Q8TDS5 whole entry): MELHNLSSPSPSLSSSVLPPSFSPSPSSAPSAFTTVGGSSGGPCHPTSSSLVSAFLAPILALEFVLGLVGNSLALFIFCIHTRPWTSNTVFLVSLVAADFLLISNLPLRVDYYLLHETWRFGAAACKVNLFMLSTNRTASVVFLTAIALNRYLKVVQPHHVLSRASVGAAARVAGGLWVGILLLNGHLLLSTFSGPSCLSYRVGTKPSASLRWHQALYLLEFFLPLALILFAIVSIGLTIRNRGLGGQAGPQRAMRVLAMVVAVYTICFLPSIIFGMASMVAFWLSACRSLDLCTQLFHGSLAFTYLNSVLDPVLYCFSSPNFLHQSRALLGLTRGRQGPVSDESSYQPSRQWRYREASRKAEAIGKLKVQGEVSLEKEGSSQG

Row | IC50 [2, 5] [µM] | IC50 [3] [µM] | IC50 [4] [µM] | IC50 [2, 6] [µM] | Structure (SMILES) | further results
1 | 0.025 | 0.072 | 0.11 | – | CCCCCCc1c(C(=O)CC(C)CC(=O)O)c2cc(Cl)ccc2n1C (racemic) [Compound 60, 5-(5-Chloro-2-hexyl-1-methyl-1H-indol-3-yl)-3-methyl-5-oxo-pentanoic acid] | effect on calcium mobilization in response to LTB4 [1]: not to LTB4; effect on calcium mobilization in response to 5-oxo-ETE ([2]; compound 1 μM, 5-oxo-ETE 10 nM, human neutrophils, FIG. 2): completely blocked
2 | 0.09 | 0.46 | 0.82 | 0.09 | CCCCCCc1cc2ccccc2n1C(=O)CC(C)CC(=O)O (centres unmarked) [Compound 2, 5-(2-Hexyl-indol-1-yl)-3-methyl-5-oxo-pentanoic acid] | IC50 ([2]; Table 7, alkyl variation, readout not given, values match Ca^++, read-out: IC50): 0.09 µM
3 | – | – | – | – | CCCCCCc1ccc2ccn(C(=O)CCCC(=O)O)c2c1 [Compound 31, 5-(6-Hexyl-indol-1-yl)-5-oxo-pentanoic acid] | IC50 ([2]; Table 3, position of hexyl/hexenyl on the scaffold, readout not given, values match Ca^++, read-out: IC50): > 10 µM
4 | 0.119 | – | – | – | CCCCCCc1c(C(=O)CC(C)CC(=O)O)c2ccc(Cl)cc2n1C (centres unmarked) [Compound 104, 5-(6-Chloro-2-hexyl-1-methyl-1H-indol-3-yl)-3-methyl-5-oxo-pentanoic acid] | –
5 | – | – | – | > 10 | CCCCCCc1cc2ccccc2n1C(=O)CCC(=O)O [Compound 14, 4-(2-Hexyl-indol-1-yl)-4-oxo-butyric acid] | –
6 | 0.009 | – | – | – | CCCCCCc1c(C(=O)CC(C)CC(=O)O)c2cc(Cl)ccc2n1C (stereo in doubt) [Compound 107, 5-(5-Chloro-2-hexyl-1-methyl-1H-indol-3-yl)-3-(R)-methyl-5-oxo-pentanoic acid] | –
